# Data published in patent publication US11028113B2, “Cyphomycin, compositions and uses thereof” (Wisconsin Alumni Research Foundation, priority 2018, dated 2021).
# Assays:
# Type in all cases: cell-based
# [1] = tested on: Aspergillus fumigatus 11628; test: In vitro MIC susceptibility testing, broth microdilution (CLSI M38-A2); conditions: Aspergillus fumigatus 11628, Triazole resistance phenotype; 50% reduction in growth turbidity at 600 nm; median of replicate assays; read-out: Cyphomycin MIC
# Description: (§1) In vitro MIC susceptibility testing. MICs of Cyphomycin for the Candida isolates were determined using a broth microdilution method in accordance with the guidelines presented in Clinical and Laboratory Standards Institute (CLSI) document M27-A3 for Candida and M38-A2 for Aspergillus^36,38. MIC values of cyphomycin were defined as the lowest concentration at which a prominent decrease in growth turbidity (i.e., 50% reduction in growth determined spectrophotometrically) relative to the turbidity of the compound-free control at 600 nm was observed. Median MIC from replicate assays is reported. Results are shown in Table 1 for cyphomycin activity against drug-resistant fungi.
# Candida glabrata 4720 = test: In vitro MIC susceptibility testing, broth microdilution (CLSI M27-A3); conditions: Nakaseomyces glabratus; Candida glabrata 4720, Echinocandin resistance phenotype; 50% reduction in growth turbidity at 600 nm; median of replicate assays; read-out: Cyphomycin MIC
# Description: as §1
# Candida auris B11211 = test: as above; conditions: Candidozyma auris; Candida auris B11211, Amphotericin B resistance phenotype; 50% reduction in growth turbidity at 600 nm; median of replicate assays; read-out: Cyphomycin MIC
# Description: as §1
structure (smiles),measurement,setting,value
"CCC(OC1CC(C)(O)C(OC2CCC(OC(=O)C(C)C(O)c3ccc4c(c3)C(=O)C=C(C)C4=O)C(C)O2)C(C)O1)C(C)C(O)C(C)C(O)C(C)C1OC(=O)/C=C/C(C)C(O)CC(O)CCCC(O)CCC(C)C(O)C(=O)C2(O)CC(O)CC(CC(O)CC(O)CC(O)CCCC(O)/C=C/C1C)O2 (stereo not drawn) [Cyphomycin, cyphomycin]",MIC,[1],0.5 µg/mL
same,MIC,Candida glabrata 4720,0.5 µg/mL
same,MIC,Candida auris B11211,4 µg/mL
